Legend:
Type in all cases: in vivo, mouse
VEGF = VEGF serum levels during different diets in TRAMP mice; conditions: FIG. 4; diet fortified 10%; two-ways ANOVA; RED007 P<0.0001; Lycopene P=0.204
From the text: FIG. 4: VEGF serum levels during different diets. Values represent mean ±SD(n8mice). […] RED007 may be also designated “Lycoprozen”. The two terms are interchangeable herein.
FIG. 6: VEGF serum levels during different diets. Values represent mean±SD(n8mice). The control diet was fortified with a 10% mixture of A and B components. The two components were mixed according to different Acomponent/Bcomponent ratios (w/w), i.e. 99.5:0.5, 98.0:2.0 (RED007 diet), and 96.0:4.0, respectively.

IL6 = IL6 serum levels during different diets in TRAMP mice; conditions: FIG. 5; diet fortified 10%; two-ways ANOVA; RED007 P<0.0001; Lycopene P=0.314
From the text: FIG. 5: IL6 serum levels during different diets. Values represent mean±SD(n8mice).
FIG. 7: IL6 serum levels during different diets. Values represent mean ±SD(n8mice). The control diet was fortified with a 10% mixture of A and B components. The two components were mixed according to different Acomponent/Bcomponent ratios (w/w), i.e. 99.5:0.5, 98.0:2.0 (RED007 diet), and 96.0:4.0, respectively.

TRAMP mice = test: Kaplan-Meier survival of TRAMP mice fed fortified diets; conditions: Lycopene treated, not significantly different from Control Diet (11%), P=0.384, unpublished observations
From the text: In man, early prostate tumorigenesis appears to be associated with a dysplasia that starts with proliferative inflammatory atrophy which may progress to low-grade Prostatic Intraepithelial Neoplasia (PIN), to high-grade PIN, to primary cancer, to metastatic cancer, and to hormone refractory cancer after hormonal treatment (23,24). Transgenic adenocarcinoma of the mouse prostate (TRAMP) is a model in which the progression of prostate cancer mirrors the stages of the human form, from PIN to undifferentiated, androgen independent tumor (25). Expression od the SV40 early genes driven by the prostate-specific promoter probasin leads to prostate cell transformation and all TRAMP mice develop prostate cancer spontaneously. This model, therefore, is regularly used to assess chemoprevention of prostate cancer (22).
In a recent paper (36), we reported that a tomato diet (Control Diet enriched with 10% of a “tomato powder”, whose composition is reported in Table 1), increased TRAMP mice survival.

SMILES: CC(C)=CCC/C(C)=C/C=C/C(C)=C/C=C/C(C)=C/C=C/C=C(C)/C=C/C=C(C)/C=C/C=C(\C)CCC=C(C)C [Lycopene, lycopene]
- VEGF serum levels compared to Control Diet (VEGF): did not significantly modify
- IL6 serum levels compared to Control Diet (IL6): did not significantly modify
- survival proportion (TRAMP mice): 17%
